Reference: USRE38551E1, “Anticonvulsant enantiomeric amino acid derivatives” (priority 1996, dated 2004)

Experiments:
[1] = system: maximal electroshock (MES) induced seizure; assay: maximal electroshock (MES) seizure test, mice (ip); type: in vivo; details: for ED50: Mus musculus
From the text: (§1) Compounds were screened for anticonvulsant activity in both male albino Carthworth Farms No. 1 mice (ip route) and male albino Sprague Dawley rats [oral (po) route]. Activity was established using the electrical (maximal electroshock or MES) test. In the MES test, a drop of electrolyte solution with anesthetic (0.5% butacaine hemisulfate in 0.9% sodium chloride) was used in the eyes of the animals prior to positioning the corneal electrodes and delivery of current. […] Protection endpoints were defined as the abolition of the hind limb tonic extensor component of the induced seizure. In mice, effects of compounds on forced spontaneous motor activity were determined using the rotorod test. […] Normally under these conditions, mice maintain their balance almost indefinitely. In rats, motor impairment is assessed by observing for overt evidence of ataxia, abnormal gait and stance, and/or loss of placing response and muscle tone. In the mouse identification screening study all compounds were given at three dose levels (30, 100, 300 mg/kg) and two time periods (0.5 hours, 4 hours). Typically, in the MES seizures test one animal was tested at 30 mg/kg and 300 mg/kg, and three animals at 100 mg/kg. In the rotored toxicity test four animals were tested at 30 mg/kg, and 300 mg/kg, and eight animals at 100 mg/kg.
(§2) The quantitative determination of the median effective (ED50) and toxic doses (TD50) was conducted at previously calculated times of peak effect. Groups of at least eight animals were tested using different doses of test compound until at least two points wee determined between 100 and 0% protection and minimal motor impairment.

[2] = system: maximal electroshock (MES) induced seizure; assay: maximal electroshock (MES) seizure test, rats (po); type: in vivo; details: for ED50: Rattus norvegicus
From the text: as §1, §2

[3] = molecular target: p-nitroanisole O-demethylase; assay: in vitro p-nitroanisole O-demethylase inhibition; type: biochemical; details: listed as Compound A, read-out: I50, in vitro p-nitroanisole O-demethylase activity
From the text: This interpretation is supported by the similar effectiveness of Compound A by the MES test, the increased hexobarbital sleep time, and the unaltered liver microsomal enzyme activity. In view of the increased hexobarbital sleep time in the 5-day treated animals, it was thought important to determine the in vitro effect of Compound A on p-nitroanisole O-demethylase activity. […] This may indicate that the potentiation of hexobarbital sleep time is central and not peripheral.

SMILES | ED50 ([1]; ip, read-out: MES, ED50) | ED50 ([1]; ip, read-out: MOUSE anticonvulsant dose ED50 MES) | PI protective index (TD50/MES ED50) ([1]; mice, ip) | Ratio to MES ([1]; mouse, i.p., Neurotox/MES (Table 6)) | ED50 ([2]; po, read-out: MES, ED50) | ED50 ([2]; po, read-out: RAT anticonvulsant ED50 MES) | Ratio to MES ([2]; rat, oral, Neurotox/MES (Table 6)) | PI protective index (TD50/MES ED50) ([2]; rat, po) | IC50 [3] | MES, ED50 ([1]; mice, ip, at time of peak effect (hours in brackets)) | MOUSE anticonvulsant dose ED50 MES ([1]; mouse, i.p. (Table 6)) | RAT anticonvulsant ED50 MES ([2]; rat, oral (Table 6)) | MES, ED50 ([2]; rat, po, at time of peak effect)
CC(=O)NC(C)C(=O)NCc1ccccc1 (racemic) [compound 1, N-Acetyl-D,L-alanine-N′-benzylamide] | 76.5 mg/kg | 76.5 mg/kg | 5.9 | 5.9 | 24.2 mg/kg | 48.2 mg/kg | 20.8 | >20.8 | 5 mM | – | – | – | –
COC[C@@H](NC(C)=O)C(=O)NCc1ccccc1 [Ex. 1, 2, (R)-N-Benzyl-2-Acetamide-3-methoxypropionamide] | – | – | – | – | – | – | – | – | – | 4.5 [0.5] mg/kg | 4.46 mg/kg | 3.90 mg/kg | 3.9 [0.5] mg/kg
